Measured values as given in PubChem BioAssay AID1963981 (Molecular Pharmacology Branch, DTP, NCI, 2024).

System: 354836-022-R-J1-PDC multicell spheroid viability
Assay: Anticancer human tumor 354836-022-R-J1-PDC patient-derived head and neck squamous cell carcinoma cell line growth inhibition [PI3K]
Settings: for IC50: curve of first compound; for viability, T/C: stronger effect = lower value
Text: Combinatorial screen of targeted agents with the PI3K inhibitors inavolisib, alpelisib, duvelisib, and copanlisib in multi-cell type tumor spheroids
A high-throughput screen of multi-cell type tumor spheroids was designed to identify active combinations of targeted small molecules and PI3K pathway inhibitors. Complex spheroids include a stromal component modeled by human endothelial cells (HUVEC) and fibroblasts modeled by human mesenchymal stem cells (MSCs). The concentration ranges selected for each drug and investigational agent were based upon clinically achievable concentrations if the clinical Cmax of the agent was known.
Compounds. The drugs and investigational agents: inavolisib (NSC800729), alpelisib (NSC765974), duvelisib (NSC772469), copanlisib (NSC816437), ipatasertib (NSC767898), afuresertib (NSC778305), talazoparib (NSC767125), sapanisertib (NSC764658), selumetinib (NSC741078), tovorafenib (DAY101, NSC766906), vemurafenib (NSC761431), ravoxertinib (NSC781343), sotorasib (NSC818433), MRTX1133 (NSC 836407), abemaciclib (NSC 768073), palbociclib (NSC758247), venetoclax (NSC 766270), SY5609 (NSC837396), enzalutamide (NSC755605), and darolutamide (NSC825331), were obtained from the National Cancer Institute (NCI) Developmental Therapeutics Program Chemical Repository. The FDA-approved anticancer drug set is available from the NCI Developmental Therapeutics Program. […] The stock solutions were prepared in dimethyl sulfoxide (DMSO, Sigma-Aldrich, St. Louis, MO, cat. D2650) at 800-fold the tested concentration and stored at -70 degrees C prior to their use. All drugs and investigational agents were tested over a range starting from a high concentration at or near the clinical Cmax and decreasing in half-log increments. If the clinical Cmax for an agent had not been determined, the highest concentration tested was 10 microM.
Cell Culture. All cells were maintained in an incubator at 37 degrees C and 5% CO2 with 95% humidity. The PDC lines were cultured according to standard operating procedures established by the NCI PDMR (https://pdmr.cancer.gov/sops/default.htm). All PDCs were thawed and cultured in Matrigel-coated flasks prepared with a working solution of 1X Ham's F-12 nutrient mix, without supplementation (Invitrogen, Waltham, MA, cat. 11765054), 100 U/mL penicillin-streptomycin (Invitrogen, cat. 15140122), and 2.5% Matrigel (Corning Inc., Corning, NY, cat. 354248) for the first three passages. The 354836-022-R-J1-PDC, 475296-252-R-J1-PDC, and 997726-040-R-J2-PDC lines were cultured in 6A media, which includes advanced DMEM/F-12 (Thermo Fisher Scientific, cat. 12634028), 10 mM HEPES (Thermo Fisher Scientific, cat. 15630080), 1X GlutaMAX supplement (Thermo Fisher Scientific, cat. 35050061), 0.1 mg/mL primocin (InvivoGen, San Diego, CA, cat. ant-pm-2), 10% defined fetal bovine serum, heat inactivated (HyClone Laboratories Inc., Logan, UT, cat. SH30070.03HI), 50% L-WRN conditioned media (ATCC, cat. CRL-3276), 1.25 mM N-Acetyl-L-cysteine (Sigma-Aldrich, cat. A9165), 10 mM nicotinamide (Sigma-Aldrich, cat. N0636), 1X B-27 supplement (Thermo Fisher Scientific, cat. 17504044), 1X N-2 supplement (Thermo Fisher Scientific, cat. 17502048), and 10 microM Y-27632 dihydrochloride (Tocris Bioscience, Bristol, United Kingdom, cat. 1254). The 624824-186-R-J2-PDC line was cultured in 6C/Colon 1B media, which includes all 6A media components plus 50 ng/mL human EGF recombinant protein (Thermo Fisher Scientific, cat. PHG0311). […]
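Further: spheroids exposed to agents for seven days before the viability read.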

Work on `CC(=O)c1c(C)c2cnc(Nc3ccc(N4CCNCC4)cn3)nc2n(C2CCCC2)c1=O` + CC(Nc1ccc2c(c1)OCCn1cc(N3C(=O)OCC3C(F)F)nc1-2)C(N)=O yielded an IC50 (second compound 0.00316 µM) greater than 100 nM, an IC50 (second compound 0.01 µM) greater than 100 nM and an IC50 (second compound 0.0316 µM) greater than 100 nM. The IC50 (second compound 0.1 µM) was greater than 100 nM, the IC50 (second compound 0.316 µM) was greater than 100 nM and the IC50 (second compound 1 µM) was greater than 100 nM. It also gave a viability, T/C (second compound 0.00316 µM, first compound 0.000316 µM) of 95.6%, a viability, T/C (second compound 0.00316 µM, first compound 0.001 µM) of 98% and a viability, T/C (second compound 0.00316 µM, first compound 0.00316 µM) of 109%. For the same compound, the viability, T/C (second compound 0.00316 µM, first compound 0.01 µM) was 82.5%, the viability, T/C (second compound 0.00316 µM, first compound 0.0316 µM) was 102% and the viability, T/C (second compound 0.00316 µM, first compound 0.1 µM) was 98.7%. For the same compound, the viability, T/C (second compound 0.01 µM, first compound 0.000316 µM) was 99%, the viability, T/C (second compound 0.01 µM, first compound 0.001 µM) was 94.3% and the viability, T/C (second compound 0.01 µM, first compound 0.00316 µM) was 102%. For the same compound, the viability, T/C (second compound 0.01 µM, first compound 0.01 µM) was 90%, the viability, T/C (second compound 0.01 µM, first compound 0.0316 µM) was 94.8% and the viability, T/C (second compound 0.01 µM, first compound 0.1 µM) was 105%. The viability, T/C (second compound 0.0316 µM, first compound 0.000316 µM) was 85.2%, the viability, T/C (second compound 0.0316 µM, first compound 0.001 µM) was 109% and the viability, T/C (second compound 0.0316 µM, first compound 0.00316 µM) was 92.2%. For the same compound, the viability, T/C (second compound 0.0316 µM, first compound 0.01 µM) was 97.8%, the viability, T/C (second compound 0.0316 µM, first compound 0.0316 µM) was 98.4% and the viability, T/C (second compound 0.0316 µM, first compound 0.1 µM) was 101%. The viability, T/C (second compound 0.1 µM, first compound 0.000316 µM) was 80.7%, the viability, T/C (second compound 0.1 µM, first compound 0.001 µM) was 84.2% and the viability, T/C (second compound 0.1 µM, first compound 0.00316 µM) was 87%. For the same compound, the viability, T/C (second compound 0.1 µM, first compound 0.01 µM) was 93%, the viability, T/C (second compound 0.1 µM, first compound 0.0316 µM) was 96.8% and the viability, T/C (second compound 0.1 µM, first compound 0.1 µM) was 80.3%. It also gave a viability, T/C (second compound 0.316 µM, first compound 0.000316 µM) of 65.8%, a viability, T/C (second compound 0.316 µM, first compound 0.001 µM) of 78.9% and a viability, T/C (second compound 0.316 µM, first compound 0.00316 µM) of 70.8%. For the same compound, the viability, T/C (second compound 0.316 µM, first compound 0.01 µM) was 68%, the viability, T/C (second compound 0.316 µM, first compound 0.0316 µM) was 70.7% and the viability, T/C (second compound 0.316 µM, first compound 0.1 µM) was 72.4%. The viability, T/C (second compound 1 µM, first compound 0.000316 µM) was 65.5%, the viability, T/C (second compound 1 µM, first compound 0.001 µM) was 60% and the viability, T/C (second compound 1 µM, first compound 0.00316 µM) was 54.4%. It also gave a viability, T/C (second compound 1 µM, first compound 0.01 µM) of 65.7%, a viability, T/C (second compound 1 µM, first compound 0.0316 µM) of 62.7% and a viability, T/C (second compound 1 µM, first compound 0.1 µM) of 63.6%.
